# Patent publication US9663508B2, “Biaryl acyl-sulfonamide compounds as sodium channel inhibitors” (AMGEN INC., priority 2013, dated 2017)
# Biological target: human Nav1.7 (Homo sapiens (Human), UniProt Q15858)
# Assay: Nav 1.7 in vitro PatchXpress (PX) assay
# Format: cell-based
# Details: not given
# human Nav1.7, sequence (Q15858 whole entry): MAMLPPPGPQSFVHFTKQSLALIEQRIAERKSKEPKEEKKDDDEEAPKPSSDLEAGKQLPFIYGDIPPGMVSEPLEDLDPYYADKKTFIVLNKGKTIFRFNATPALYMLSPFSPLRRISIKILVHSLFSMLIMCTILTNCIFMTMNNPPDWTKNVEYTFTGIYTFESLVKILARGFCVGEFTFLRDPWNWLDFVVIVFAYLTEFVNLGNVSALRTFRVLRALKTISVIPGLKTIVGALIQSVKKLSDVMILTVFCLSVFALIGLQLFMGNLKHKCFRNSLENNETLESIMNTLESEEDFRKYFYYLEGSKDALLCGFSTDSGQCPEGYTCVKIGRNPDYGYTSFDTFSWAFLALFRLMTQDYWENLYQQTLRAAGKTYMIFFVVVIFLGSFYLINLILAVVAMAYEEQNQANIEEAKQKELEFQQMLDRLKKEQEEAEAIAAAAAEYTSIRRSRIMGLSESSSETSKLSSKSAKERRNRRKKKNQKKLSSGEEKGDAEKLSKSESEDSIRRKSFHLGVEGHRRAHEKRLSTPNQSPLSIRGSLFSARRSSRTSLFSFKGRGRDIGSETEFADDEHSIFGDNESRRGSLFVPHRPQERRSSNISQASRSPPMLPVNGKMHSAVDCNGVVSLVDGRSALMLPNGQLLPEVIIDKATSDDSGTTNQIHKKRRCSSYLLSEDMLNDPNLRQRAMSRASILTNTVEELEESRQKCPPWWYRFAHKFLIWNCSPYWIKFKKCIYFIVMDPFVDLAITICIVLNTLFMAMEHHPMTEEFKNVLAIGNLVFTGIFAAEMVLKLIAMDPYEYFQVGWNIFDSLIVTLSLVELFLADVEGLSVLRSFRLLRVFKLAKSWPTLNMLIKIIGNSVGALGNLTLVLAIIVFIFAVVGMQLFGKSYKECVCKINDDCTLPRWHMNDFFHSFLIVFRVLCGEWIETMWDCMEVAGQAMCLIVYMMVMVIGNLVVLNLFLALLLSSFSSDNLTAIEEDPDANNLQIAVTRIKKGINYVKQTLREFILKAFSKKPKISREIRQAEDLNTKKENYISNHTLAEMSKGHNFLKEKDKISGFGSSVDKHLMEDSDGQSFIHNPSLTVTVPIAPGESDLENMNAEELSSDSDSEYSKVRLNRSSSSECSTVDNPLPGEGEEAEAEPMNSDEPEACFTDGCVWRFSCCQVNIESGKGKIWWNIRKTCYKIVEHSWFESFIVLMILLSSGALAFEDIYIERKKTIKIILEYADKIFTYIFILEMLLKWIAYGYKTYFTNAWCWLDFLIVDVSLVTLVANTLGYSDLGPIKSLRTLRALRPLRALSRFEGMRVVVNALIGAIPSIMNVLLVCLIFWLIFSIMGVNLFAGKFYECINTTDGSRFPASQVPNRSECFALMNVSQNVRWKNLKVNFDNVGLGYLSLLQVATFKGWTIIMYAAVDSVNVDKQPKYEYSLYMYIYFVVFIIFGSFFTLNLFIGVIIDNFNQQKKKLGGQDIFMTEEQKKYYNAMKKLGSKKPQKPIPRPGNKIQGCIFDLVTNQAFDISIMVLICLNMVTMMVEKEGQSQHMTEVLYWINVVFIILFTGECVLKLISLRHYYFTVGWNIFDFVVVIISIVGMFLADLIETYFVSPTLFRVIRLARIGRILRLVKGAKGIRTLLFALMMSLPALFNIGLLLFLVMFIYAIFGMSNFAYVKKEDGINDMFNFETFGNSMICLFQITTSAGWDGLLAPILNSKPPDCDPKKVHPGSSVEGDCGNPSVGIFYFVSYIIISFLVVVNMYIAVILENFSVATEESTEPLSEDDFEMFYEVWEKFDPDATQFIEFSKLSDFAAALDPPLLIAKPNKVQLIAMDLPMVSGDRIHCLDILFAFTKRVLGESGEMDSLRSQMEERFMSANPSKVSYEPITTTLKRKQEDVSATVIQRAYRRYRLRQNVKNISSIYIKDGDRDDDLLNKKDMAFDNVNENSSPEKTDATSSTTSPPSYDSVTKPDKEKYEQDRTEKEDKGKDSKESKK
row,IC50 [nM],SMILES
1,75.9,"Cc1cc(C(=O)NS(C)(=O)=O)c(F)cc1-c1cnc(O[C@@H]2CCCC(C)(C)C2)c(Cl)c1 [Example 687, 4-(5-chloro-6-(((1R)-3,3-dimethylcyclohexyl)oxy)-3-pyridinyl)-2-fluoro-5-methyl-N-(methylsulfonyl)benzamide, 4-(5-chloro-6-(((1S)-3,3-dimethylcyclohexyl)oxy)-3-pyridinyl)-2-fluoro-5-methyl-N-(methylsulfonyl)benzamide]"
2,68.8,"CS(=O)(=O)NC(=O)c1ccc(-c2cnc(Oc3ccc(Cl)cc3)c(Cl)c2)c(OC(F)F)c1 [Example 466, 4-(5-chloro-6-(4-chlorophenoxy)-3-pyridinyl)-3-(difluoromethoxy)-N-(methylsulfonyl)benzamide]"
3,84.7,"COc1cc(C(=O)NS(C)(=O)=O)ccc1-c1cnc(Oc2ccc(C)c(Cl)c2)c(Cl)c1 [Example 329, 4-(5-chloro-6-(3-chloro-4-methylphenoxy)-3-pyridinyl)-3-methoxy-N-(methylsulfonyl)benzamide]"
4,102,"Cc1cc(C(=O)NS(C)(=O)=O)c(F)cc1-c1cnc(N2CCC[C@@H]2c2cccc(C(F)(F)F)c2)c(Cl)c1 [Example 655, 4-(5-chloro-6-((2R)-2-(3-(trifluoromethyl)phenyl)-1-pyrrolidinyl)-3-pyridinyl)-2-fluoro-5-methyl-N-(methylsulfonyl)benzamide, 4-(5-chloro-6-((2S)-2-(3-(trifluoromethyl)phenyl)-1-pyrrolidinyl)-3-pyridinyl)-2-fluoro-5-methyl-N-(methylsulfonyl)benzamide]"
5,46.1,"Cc1cc(Oc2ncc(-c3ccc(C(=O)NS(C)(=O)=O)cc3OC3COC3)cc2Cl)ccc1Cl [Example 413, 4-(5-chloro-6-(4-chloro-3-methylphenoxy)-3-pyridinyl)-N-(methylsulfonyl)-3-(3-oxetanyloxy)benzamide]"
6,92.4,"CS(=O)(=O)NC(=O)c1ccc(-c2cnc(Oc3ccccc3C(F)(F)F)c(Cl)c2)c(OC(F)F)c1 [Example 464, 4-(5-chloro-6-(2-(trifluoromethyl)phenoxy)-3-pyridinyl)-3-(difluoromethoxy)-N-(methylsulfonyl)benzamide]"
7,91.4,"COc1ccc(Oc2ncc(-c3ccc(C(=O)NS(C)(=O)=O)cc3OC)cc2Cl)c(Cl)c1 [Example 365, 4-(5-chloro-6-(2-chloro-4-methoxyphenoxy)-3-pyridinyl)-3-methoxy-N-(methylsulfonyl)benzamide]"
8,87.5,"Cc1cc(C(=O)NS(C)(=O)=O)c(F)cc1-c1cnc(Oc2ccc(Cl)cc2C(F)(F)F)c(Cl)c1 [Example 679, 4-(5-chloro-6-(4-chloro-2-(trifluoromethyl)phenoxy)-3-pyridinyl)-2-fluoro-5-methyl-N-(methylsulfonyl)benzamide]"
9,108,"Cc1cc(C(=O)NS(C)(=O)=O)c(F)cc1-c1cnc(Oc2ccc(F)c(Cl)c2)c(Cl)c1 [Example 626, 4-(5-chloro-6-(3-chloro-4-fluorophenoxy)-3-pyridinyl)-2-fluoro-5-methyl-N-(methylsulfonyl)benzamide]"

# The next lines start with the compound.
row,SMILES,IC50 [nM]
1,"COc1ccc(Cl)c(Oc2ncc(-c3ccc(C(=O)NS(C)(=O)=O)cc3OC)cc2Cl)c1 [Example 369, 4-(5-chloro-6-(2-chloro-5-methoxyphenoxy)-3-pyridinyl)-3-methoxy-N-(methylsulfonyl)benzamide]",90.5
2,"CS(=O)(=O)NC(=O)c1cc(F)c(-c2cnc(Oc3ccc(Cl)c(Cl)c3)c(Cl)c2)cc1F [Example 570, 4-(5-chloro-6-(3,4-dichlorophenoxy)-3-pyridinyl)-2,5-difluoro-N-(methylsulfonyl)benzamide]",61.2
3,"Cc1ccc(Cl)cc1Oc1ncc(-c2cc(F)c(C(=O)NS(C)(=O)=O)cc2F)cc1Cl [Example 571, 4-(5-chloro-6-(5-chloro-2-methylphenoxy)-3-pyridinyl)-2,5-difluoro-N-(methylsulfonyl)benzamide]",99.2
4,"Cc1cc(C(=O)NS(C)(=O)=O)c(F)cc1-c1cnc(O[C@H](C)c2ccccc2C(F)(F)F)c(Cl)c1 [Example 688, 4-(5-chloro-6-((1R)-1-(2-(trifluoromethyl)phenyl)ethoxy)-3-pyridinyl)-2-fluoro-5-methyl-N-(methylsulfonyl)benzamide, 4-(5-chloro-6-((1S)-1-(2-(trifluoromethyl)phenyl)ethoxy)-3-pyridinyl)-2-fluoro-5-methyl-N-(methylsulfonyl)benzamide]",86.3
5,"CS(=O)(=O)NC(=O)c1cc(F)c(-c2cnc(Oc3c(Cl)cc(F)cc3Cl)c(Cl)c2)cc1F [Example 572, 4-(5-chloro-6-(2,6-dichloro-4-fluorophenoxy)-3-pyridinyl)-2,5-difluoro-N-(methylsulfonyl)benzamide]",57.6

# Same assay, conditions: in-vitro Nav 1.7 PX data
row,IC50 [nM],SMILES
1,381,"CCc1ccc(-c2cc(F)c(C(=O)NS(C)(=O)=O)cc2C)cc1Cl [Example 814, 3′-chloro-4′-ethyl-5-fluoro-2-methyl-N-(methylsulfonyl)-4-biphenylcarboxamide]"
2,55.3,"COc1cc(C(=O)NS(C)(=O)=O)c(F)cc1-c1cnc(O[C@H](C)Cc2ccccc2)c(Cl)c1 [Example 756, 4-(5-chloro-6-((1R)-1-methyl-2-phenylethoxy)-3-pyridinyl)-2-fluoro-5-methoxy-N-(methylsulfonyl)benzamide]"
3,4020,"Cc1cc(C(=O)NS(C)(=O)=O)c(F)cc1-c1ccc(OCC(F)(F)F)cc1 [Example 810, 5-fluoro-2-methyl-N-(methylsulfonyl)-4′-(2,2,2-trifluoroethoxy)-4-biphenylcarboxamide]"
4,123,"CCS(=O)(=O)NC(=O)c1ccc(-c2cnc(OC3CCC3)c(Cl)c2)c(OC)c1 [Example 790, 4-(5-chloro-6-(cyclobutyloxy)-3-pyridinyl)-N-(ethylsulfonyl)-3-methoxybenzamide]"
5,145,"CS(=O)(=O)NC(=O)c1cc(OC(F)F)c(-c2cnc(OC3CCC3)c(Cl)c2)cc1F [Example 781, 4-(5-chloro-6-(cyclobutyloxy)-3-pyridinyl)-5-(difluoromethoxy)-2-fluoro-N-(methylsulfonyl)benzamide]"
6,2430,"Cc1cc(C(=O)NS(C)(=O)=O)c(F)cc1-c1cnc(OCC(F)F)c(Cl)c1 [Example 808, 4-(5-chloro-6-(2,2-difluoroethoxy)-3-pyridinyl)-2-fluoro-5-methyl-N-(methylsulfonyl)benzamide]"
7,141,"Cc1cc(C(=O)NS(C)(=O)=O)c(F)cc1-c1ccc(CC2CC2)c(Cl)c1 [Example 813, 3′-chloro-4′-(cyclopropylmethyl)-5-fluoro-2-methyl-N-(methylsulfonyl)-4-biphenylcarboxamide]"

# More lines, now with the values behind:
row,SMILES,IC50 [nM]
1,"CCC(CC)Nc1ncc(-c2cc(F)c(C(=O)NS(C)(=O)=O)cc2OC)cc1Cl [Example 725, 4-(5-chloro-6-((1-ethylpropyl)amino)-3-pyridinyl)-2-fluoro-5-methoxy-N-(methylsulfonyl)benzamide]",96.5
2,"COc1cc(C(=O)NS(C)(=O)=O)c(F)cc1-c1cnc(Oc2ccc(F)c3c2CCC3)c(Cl)c1 [Example 757, 4-(5-chloro-6-((7-fluoro-2,3-dihydro-1H-inden-4-yl)oxy)-3-pyridinyl)-2-fluoro-5-methoxy-N-(methylsulfonyl)benzamide]",47.7
3,"Cc1cc(C(=O)NS(C)(=O)=O)c(F)cc1-c1cccc(OC(F)(F)C(F)F)c1 [Example 812, 5-fluoro-2-methyl-N-(methylsulfonyl)-3′-(1,1,2,2-tetrafluoroethoxy)-4-biphenylcarboxamide]",5840
4,"Cc1cc(Cl)cc(Cl)c1Oc1ncc(-c2ccc(C(=O)NS(C)(=O)=O)cc2Cl)cc1Cl [Example 776, 3-chloro-4-(5-chloro-6-(2,4-dichloro-6-methylphenoxy)-3-pyridinyl)-N-(methylsulfonyl)benzamide]",34.5
5,"COc1cc(C(=O)NS(C)(=O)=O)ccc1-c1cnc(Oc2cc(Cl)cc(Cl)c2)c(C=O)c1 [Example 822, 4-(6-(3,5-Dichlorophenoxy)-5-Formylpyridin-3-yl)-3-Methoxy-N-(Methylsulfonyl)Benzamide]",151
6,"COc1cc(C(=O)NS(C)(=O)=O)c(F)cc1-c1cnc(O[C@@H]2CCC[C@H]2C)c(Cl)c1 [Example 727, 4-(5-chloro-6-(((1R,2R)-2-methylcyclopentyl)oxy)-3-pyridinyl)-2-fluoro-5-methoxy-N-(methylsulfonyl)benzamide]",102
7,"COc1cc(C(=O)NS(C)(=O)=O)c(F)cc1-c1cnc(O[C@H](C)C2CCC2)c(Cl)c1 (single isomer, unassigned) [Example 769]",50
8,"CCS(=O)(=O)NC(=O)c1ccc(-c2cnc(O[C@H]3C[C@H]4CC[C@@H]3C4)c(Cl)c2)c(OC)c1 [Example 792, 4-(6-((1R,2S,4S)-bicyclo[2.2.1]hept-2-yloxy)-5-chloro-3-pyridinyl)-N-(ethylsulfonyl)-3-methoxybenzamide]",85.3
9,"COc1cc(C(=O)NS(C)(=O)=O)c(F)cc1-c1cnc(O[C@@H]2CC[C@@H]2C)c(Cl)c1 [Example 770, 4-(5-chloro-6-(((1R,2S)-2-methylcyclobutyl)oxy)-3-pyridinyl)-2-fluoro-5-methoxy-N-(methylsulfonyl)benzamide]",110
10,"COc1cc(C(=O)NS(C)(=O)=O)c(F)cc1-c1cnc(OCc2ccc(Cl)cc2)c(Cl)c1 [Example 750, 4-(5-chloro-6-((4-chlorobenzyl)oxy)-3-pyridinyl)-2-fluoro-5-methoxy-N-(methylsulfonyl)benzamide]",74.7
11,"CS(=O)(=O)NC(=O)c1ccc(-c2cnc(Oc3cc(Cl)cc(Cl)c3)c(Cl)c2)c(Cl)c1 [Example 777, 3-chloro-4-(5-chloro-6-(3,5-dichlorophenoxy)-3-pyridinyl)-N-(methylsulfonyl)benzamide]",40
12,"COc1cc(C(=O)NS(C)(=O)=O)c(F)cc1-c1cnc(Oc2ccc(C)c(Cl)c2)c(Cl)c1 [Example 751, 4-(5-chloro-6-(3-chloro-4-methylphenoxy)-3-pyridinyl)-2-fluoro-5-methoxy-N-(methylsulfonyl)benzamide]",98.3
13,"COc1cc(C(=O)NS(C)(=O)=O)c(F)cc1-c1cnc(O[C@H](C)c2ccc(F)cc2Cl)c(Cl)c1 [Example 761, 4-(5-chloro-6-((1R)-1-(2-chloro-4-fluorophenyl)ethoxy)-3-pyridinyl)-2-fluoro-5-methoxy-N-(methylsulfonyl)benzamide]",82.1
